Results reported in US8063018B2, “Bivalent thrombin binding molecules comprising linkers” (National Research Council of Canada, priority 2004, dated 2011).
“And” between values parts separate entries of the source, which are not always exact repeats. Identical values can stand only once. Non-standard residues stand in square brackets, D forms with d. Primed or numbered codes have the meaning given here. No end group written: not given here. *: point of attachment. Benzenesulfonyl(4-tBu) = CC(C)(C)c1ccc(S(=O)(=O)*)cc1; dPip′ = not defined here

Legend:
thrombin = thrombin (Homo sapiens, UniProt P00734); settings: cited from earlier work
[1] = Calcium binding followed by proton NMR; settings: CaCl2 titration, pH 5.5
Protocol: Looking at the results in FIG. 6, panels a, b, c, d show changes in the proton NMR spectra of Ac-[…]NH2 (SEQ. ID. NO. 109) (P3230, panels a, b) and Ac-[…]NH2 (SEQ. ID. NO. 110) (P3231, panels c, d) upon the addition to the initial ˜450 μL of the corresponding peptide in 20 mM sodium acetate-d3 buffer, pH 5.5, containing 10% D2O, of 1 μL (final CaCl2 concentration ˜0.22 mM), additional 2 μL (final CaCl2 concentration ˜0.66 mM), additional 10 μL (final CaCl2 concentration ˜2.8 mM) of 100 mM CaCl2, and additional 10 μL (final CaCl2 concentration ˜23.9 mM) of 1 M CaCl2. Panels e and f show changes in the proton NMR spectrum of a disulfide-linked peptide Bbs-Arg-(D-Pip)-Gly-Cys . . . […](SEQ. ID. No. 16) upon the addition to the initial volume of ˜450 μL of 1 μL (final CaCl2 concentration ˜0.22 mM), additional 2 μL (final CaCl2 concentration ˜0.66 mM) of 100 mM CaCl2, and additional 10 μL (final CaCl2 concentration ˜22.2 mM) of 1 M CaCl2.
An inhibitor with a linker known to bind specific metal ions will be affected by the presence of these ions in solution. Two peptides homologous to the calcium-binding loop of troponin C were designed and established that they bind calcium ions in solution. The peptides have the following sequences—Ac-[…]NH2 (P3230) (SEQ. ID. NO. 109) and Ac-[…]NH2 (P3231) (SEQ. ID. NO. 110). The peptides were synthesized, purified and their identity was confirmed as described in Example 1. They were tested for calcium binding by use of NMR. For this both freeze-dried peptides were reconstituted at a concentration of approximately 0.5 mM in 20 mM sodium acetate-d3 buffer, pH 5.5, containing 10% D2O. Proton spectra of the peptides were recorded at 800 MHz, 15° C., before and after addition of increasing amounts of 0.1 and 1 M stock solutions of CaCl2 in the same buffer. FIGS. 6a,b,c,d show changes in the proton NMR spectra of these two peptides upon the addition to the initial volume of ˜450 μL of 1 μL (final CaCl2 concentration ˜0.22 mM), additional 2 μL (final CaCl2 concentration ˜0.66 mM), additional 10 μL (final CaCl2 concentration ˜2.8 mM) of 100 mM CaCl2, and additional 10 μL (final CaCl2 concentration ˜23.9 mM) of 1 M CaCl2. The changes in the spectra confirm binding of calcium with affinity in mM range.
One of the two designed peptides was used to construct a calcium-responsive bivalent thrombin inhibitor. The disulfide-linked bivalent thrombin inhibitor (corresponding to SEQ. ID. NO. 91) prepared by cross-oxidation of cysteine thiol groups from two peptides Bbs-Arg-(D-Pip)-Gly-Cys (SEQ. ID. NO. 4) and […](SEQ. ID. NO. 114) (preparation described in Example 1) was tested for its ability to bind calcium and inhibit amidolytic reaction in the presence and absence of calcium. […]

α-thrombin [2] = target: T1, α-thrombin (Homo sapiens, UniProt P00734); assay: Effect of calcium on inhibition of the amidolytic activity of thrombin (S-3266); assay type: biochemical; set-up: chromogenic substrate proteolysis by human α-thrombin; settings: 50 and 100 mM calcium, 0.6 nM thrombin, 25° C.
[3] = target: T2, SH2 domain from the Grb4 adaptor protein (Mus musculus, UniProt O55033); settings: tyrosine-phosphorylated state; read-out: Affinity for the SH2 domain from Grb4; cited from earlier work
T2 sequence (O55033 285-379 limits assumed): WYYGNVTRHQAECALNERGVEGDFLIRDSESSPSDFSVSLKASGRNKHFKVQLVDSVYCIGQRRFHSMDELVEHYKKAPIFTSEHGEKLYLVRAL

anti-c-myc antibody 9E10 = settings: read-out: Affinity for anti-c-myc antibody 9E10; cited from earlier work
CaCdc42 (R150K) = target: T3, CaCdc42 (R150K) (Candida albicans, UniProt P0CY33, R150K); assay: Fluorescence titration of sNBD-labeled, GMPPCP-loaded CaCdc42 (R150K) with CRIB peptides; assay type: binding
T3 construct: made in house; host or cells: E. coli BL21
Protocol: In order to construct a bivalent peptide ligand for Candida Cdc42 (CaCdc42) (with a suitable linker) (FIG. 12), the binding affinities of component peptides derived from the CRIB domains of Candida Cla4 and Step 20 were determined. Residue K150 of the R150K CaCdc42 mutant was covalently modified with the fluorescent probe, sNBD (Molecular Probes, Eugene, Oreg.), essentially as described by Nomanbhoy and Cerione (Nomanbhoy, T. and Cerione, R. A., 1999, 15878-15884.). The stoichiometry of the fluorescent probe per protein molecule was estimated at 1.13, based on protein concentration determined with ε280nm=13,610 M^−1 cm^−1 (Gill, S. C. and von Hippel, P. H., 1989, 319-326), and using the absorbance of the sNBD moiety of ε463nm=22,000 M^−1 cm^−1. Interaction of the CRIB peptides with sNBD-labeled CaCdc42 was monitored using extrinsic fluorescence measurements with a Hitachi F-2500 fluorescence spectrophotometer. Samples of sNBD-labeled, activated CaCdc42 were added in the assay buffer (50 mM phosphate, pH 6.8, 50 mM NaCl and 5 mM MgCl2) to a cuvette being continuously stirred. The protein concentration was 1 μM. Individual CRIB peptide dissolved in the same assay buffer was added drop-wise to the cuvette. The mixture was excited at 488 nm with an excitation slit width of 5 nm. The emission spectra were scanned from 510 nm to 590 nm. The fluorescence emission intensity at the emission maximum 545 nm was determined from each spectrum and the final value was obtained by averaging the values from five scans of the same sample. […]
The Kd values for the binding of the CRIB peptides to sNBD-labeled activated CaCdc42 were determined by fitting the fluorescence titration data to a simple bimolecular association model as described by Leonard et al (Leonard, D. A., and others, 1997, 1173-1180). […]
[formula] The fluorescence intensity (F) is related to the dissociation constant, Kd as follows,
[formula] where F0 and Ft are the fluorescence intensities at the starting and end points of the titration, respectively. […] Average Kd values were determined from multiple independent measurements.

α-thrombin [4] = target: T1, α-thrombin; assay: Amidolytic assay of CaM-DTI and CaM-DTI2 (S-2238 or S-2366); assay type: biochemical; set-up: with a certain fixed concentration of α-thrombin (˜0.3 nM); settings: Ca2+ up to 5 mM
Protocol: Kinetics of thrombin-catalyzed hydrolysis of the chromogenic substrates S-2238 or S-2366 (Chromogenix) was followed by absorbance at 405 nm on a SpectraMax plate reader thermostated at 37° C. The concentration of the substrate was 400 μM. Inhibition assays were performed in the clotting buffer with a certain fixed concentration of α-thrombin (˜0.3 nM) such that linear progress curves were observed within at least 15 min in the absence of the inhibition. The total volume of the reaction mixture was 200 μl. […] Kinetics data from initial rate experiments were used to construct Lineweaver-Burke plot; i.e. the relationship of (substrate concentration)^−1 versus (initial velocity)^−1 which were analysed by linear regression with MicroCal Origin 6.0 program (MicroCal, Md.). The Ki values of the inhibitors were determined using the equation Ki=[I]/{(SLo/SL1)−1}, where [I] is the inhibitor concentration, SLo is the slope of the reaction in the absence of inhibitors, and SL1 is the slope of the reaction in the presence of the inhibitor.
Kinetics of thrombin-catalyzed hydrolysis of the chromogenic substrate S-2366 (Chromogenix) was followed by absorbance at 405 nm on a SpectraMax plate reader at 25° C. The concentration of the substrate S-2366 was 50 μM. Inhibition assays were performed in the clotting buffer with a certain fixed concentration of α-thrombin (˜0.6 nM). […]

T3 sequence (P0CY33 1-178 R150K): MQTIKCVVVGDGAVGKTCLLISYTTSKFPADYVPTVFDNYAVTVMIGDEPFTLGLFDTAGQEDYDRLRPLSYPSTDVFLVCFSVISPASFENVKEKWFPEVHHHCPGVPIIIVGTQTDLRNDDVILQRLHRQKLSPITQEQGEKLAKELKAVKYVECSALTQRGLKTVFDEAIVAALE

Bbs-Arg-(D-Pip)-Gly ({Benzenesulfonyl(4-tBu)}-Arg-[dPip′]-Gly) [H1]
KI of the constituent binding moiety (thrombin; monovalent moiety alone): low μM range

Bbs-Arg-(D-Pip)-Gly-Cys . . . Cys-Asp-Lys-Asn-Ala-Asp-Gly-Trp-Ile-Asp-Asn-Gly-Asp-Phe-Glu-Glu-Ile-Pro-Glu-Glu-Tyr-Leu-Gln (CDKNADGWIDNGDFEEIPEEYLQ; not fully specified (N-terminus); printed as Bbs-Arg-(D-Pip)-Gly-Cys . . . Cys-Asp-Lys-Asn-Ala-Asp-Gly-Trp-Ile-Asp-Asn-Gly-Asp-Phe-Glu-Glu-Ile-Pro-Glu-Glu-Tyr-Leu-Gln; also: N-terminal part Bbs-Arg-(D-Pip)-Gly-Cys . . . precedes Cys1, intervening residues not given here) [3243-3255]
Affinity of calcium binding [1]: mM range | Effect of calcium on inhibition potency (α-thrombin [2]; listed as SEQ. ID. NO. 91): altered inhibition | Effect of calcium on inhibition potency (α-thrombin [2]; listed as calcium-responsive disulfide-linked bivalent thrombin inhibitor): decreased

CPHYEKVSG [ephrinB2301-309, peptide derived from the ephrinB cytoplasmic tail]
Kd [3]: 0.2 µM

EQKLISEEDL [c-myc sequence]
Kd (anti-c-myc antibody 9E10): ~0.5 µM

EVNIKISTPFNAKHLAHVGIDDNGNFTGLPDTWKSLLQHSKIT [mCst20-cCla4]
Kd (CaCdc42 (R150K)): 2.64 ± 0.2 µM

EVNIKISTPFNAKHLAHVGIDDNGSYTGLPIEWERLLSASGIT [eCst20]
Kd (CaCdc42 (R150K)): 0.046 µM

GGNSGFPGPINFTHKVHVGFDRKSLTIYAQVQKNFTGLPDTWKSLLQHSKIT [eCla4-SLAM, GGNSGFPGPINFTHKVHVGFDRKSLTIYAQVQKNFTGLPDTWKSLLQHSKIT]
Kd (CaCdc42 (R150K)): 0.127 ± 0.07 µM

Ile-Arg-Phe-Thr-Asp-Gly-Glu-Gly-(CamCKK)-Asp-Phe-Glu-Glu-Ile-Pro-Glu-Glu-Tyr-Leu-Gln [CaM-DTI2]
Effect of Ca2+ on inhibition of the thrombin active site (α-thrombin [4]): not affected

WDPRPQRHNDGDFEEIPEEYLQ [SEQ. ID. NO. 18]
Ki (thrombin; subject of another patent application, read-out: KI for thrombin inhibition): ~0.017 µM and 0.017 µM
